Experiments:
hSK3 channels = biological target: T1, hSK3 channels (Homo sapiens, UniProt Q9UGI6); experiment: whole-cell patch-clamp recording of ionic current through SK channels (subtype 3) in HEK293 cells expressing hSK3; format: cell-based
T1 construct: expressed in transfected cells; host or cells: HEK293
Procedure: The ionic current through small-conductance Ca^2+-activated K^+ channels (SK channels, subtype 3) is recorded using HEK293 tissue culture cells expressing hSK3 channels in a whole-cell configuration of the patch-clamp technique as described in e.g. WO 2006/100212.
For activators a SC100 value may be estimated. The SC100 value is defined as the Stimulating Concentration required for increasing the baseline current by 100%. The SC100 value determined for Compound A1 of the invention was well below 0.1 μM, which is an indication of its strong SK3 activating properties.

Compound: Clc1ccc(Nc2nc(-c3nccc4ccccc34)nc3ccccc23)cc1 [Compound B10, (4-Chloro-Phenyl)-(2-Isoquinolin-1-yl-Quinazolin-4-yl)-Amine]
- melting point: 279 to 280.5 °C

Compound: Clc1ccc(CNc2nc(-c3nccc4ccccc34)nc3ccccc23)cc1 [Compound B11, (4-Chloro-Benzyl)-(2-Isoquinolin-1-yl-quinazolin-4-yl)-Amine]
- melting point: 221.4 to 224.5 °C

Compound: c1ccc2c(-c3nc(NC4CCCCC4)c4ccccc4n3)nccc2c1 [Compound B9, Cyclohexyl-(2-Isoquinolin-1-yl-Quinazolin-4-yl)-Amine]
- melting point: 274.8 to 276.9 °C

Compound: COc1cccc(-c2nc(Nc3ccc(Cl)cc3)c3ccccc3n2)n1 [Compound A4, (4-Chloro-Phenyl)-[2-(6-Methoxy-Pyridin-2-yl)-Quinazolin-4-yl]-Amine]
- melting point: 156.8 to 160 °C

Compound: Fc1cccc(-c2nc(Nc3ccc(Cl)cc3)c3ccccc3n2)n1 [Compound A2, (4-Chloro-Phenyl)-[2-(6-Fluoro-Pyridin-2-yl)-Quinazolin-4-yl]-Amine]
- melting point: 118.3 to 121.4 °C

Compound: O=C(c1ccccc1)c1cccnc1-c1nc(NC2CCCCC2)c2ccccc2n1 [Compound B1, [2-(4-Cyclohexylamino-Quinazolin-2-yl)-Pyridin-3-yl]-Phenyl-Methanone]
- melting point: 204 to 208 °C

Compound: Cc1cccc(-c2nc(NCc3ccc(Cl)cc3)c3ccccc3n2)n1 [Compound B3, (4-Chloro-Benzyl)-[2-(6-Methyl-Pyridin-2-yl)-Quinazolin-4-yl]-Amine]
- melting point: 209.9 to 212.2 °C

Compound: Cc1cccc(-c2nc(Nc3ccc(Cl)cc3)c3ccccc3n2)n1 [Compound A1, (4-Chloro-Phenyl)-[2-(6-Methyl-Pyridin-2-yl)-Quinazolin-4-yl]-Amine]
- SC100 value (Stimulating Concentration required for increasing the baseline current by 100%) (hSK3 channels): below 0.1 μM
- melting point: 256.1 to 259.1 °C

Compound: Clc1ccc(Nc2nc(-c3cccc(Cl)n3)nc3ccccc23)cc1 [Compound B5, (4-Chloro-Phenyl)-[2-(6-Chloro-Pyridin-2-yl)-Quinazolin-4-yl]-Amine]
- melting point: 211.9 to 213.2 °C

Compound: Oc1cccc(-c2nc(Nc3ccc(Cl)cc3)c3ccccc3n2)n1 [Compound A5, 6-[4-(4-Chloro-Phenylamino)-Quinazolin-2-yl]-Pyridin-2-ol]
- melting point: > 350 °C

Compound: Clc1cccc(-c2nc(NC3CCCCC3)c3ccccc3n2)n1 [Compound B4, [2-(6-Chloro-Pyridin-2-yl)-Quinazolin-4-yl]-Cyclohexyl-Amine]
- melting point: 218.4 to 220.9 °C

Compound: Clc1ccc(CNc2nc(-c3cccc(Cl)n3)nc3ccccc23)cc1 [Compound B6, (4-Chloro-Benzyl)-[2-(6-chloro-Pyridin-2-yl)-Quinazolin-4-yl]-Amine]
- melting point: 187.4 to 189.7 °C

Compound: Cc1cccc(-c2nc(NC3CCCCC3)c3ccccc3n2)n1 [Compound B2, Cyclohexyl-[2-(6-Methyl-Pyridin-2-yl)-Quinazolin-4-yl]-Amine]
- melting point: 253.1 to 254.9 °C

Compound: Clc1ccc(Nc2nc(-c3cccc(Br)n3)nc3ccccc23)cc1 [Compound A3, [2-(6-Bromo-Pyridin-2-yl)-Quinazolin-4-yl]-(4-Chloro-Phenyl)-Amine]
- melting point: 242.4 to 247.9 °C

Reference: US20090306102A1, “2-PYRIDIN-2-YL-QUINAZOLINE DERIVATIVES AS POTASSIUM CHANNEL MODULATING AGENTS FOR THE TREATMENT OF RESPIRATORY DISEASES” (priority 2005, published 2009)
